Laboratory results from patent publication US11882816B2, “Genetically engineered non-human mammal, construction method therefor and use thereof” (priority 2017, dated 2024).

What was measured:
[1] = test system: patients suffering from long-term inflammatory diseases such as rheumatoid arthritis; settings: clinically, low doses; patients with long-term inflammatory diseases such as rheumatoid arthritis; ref. [10]; cited from earlier work
[2] = test system: IL-6, ICAM-1, E-selectin, VCAM-1 expressions; settings: general statement on the anti-inflammatory drug; cited from earlier work
homozygous mice [3] = experiment: Quantification of ascending aortic atherosclerotic plaques in homozygous mice on HF diet with/without Dox, weekly MTX; format: in vivo; settings: hypertensive (Dox) homozygous mice fed HF diet for 8 weeks, control 46%, P<0.05, FIGS. 12C-D
From the text: Homozygous mice (Hom) and ApoE knockout mice (KO) are used as controls, the experiment is employed by dividing the mice into four groups, each group has 15 mice, four groups being normal diet group (Chow), high fat diet group (HF), higher fat diet group (H-HF) and ultra-high fat diet group (CH-HF). The mice are fed with normal diet group (Chow) until 8 weeks old and then are fed with different high fat diet, respectively being HF feed (HF formula: 21.2% fat, 48.7% carbohydrate, 17.3% protein, and 0.25% cholesterol), H-HF feed (H-HF formula: 21.2% fat, 48.7% carbohydrate, 17.3% protein, and 1.25% cholesterol), and CH-HF feed (CH-HF formula: 21.2% fat, 48.7% carbohydrate, 17.3% protein, 1.25% cholesterol, and 0.5% cholic acid). After 8 weeks of treatment, collecting the blood of the mice, detecting the body weight, heart weight, spleen weight and blood lipids of the mice, and isolating the mice aorta for oil red O staining so as to quantify the atherosclerotic plaque content.
(§1) Homozygous mice, divided into 5 groups, are to fed with normal diet (Chow), high-fat diet (HF), high-fat diet plus boostin (HF+D), high-fat diet plus methotrexate (MTX) (HF+M), and high-fat diet plus boostin and methotrexate (HF+D+M). […] The blood pressure changes of the mice are periodically detected, and the data such as blood, blood lipids, blood pressure and death data etc. of the mice are collected. […]

homozygous mice [4] = experiment: Survival of hypertensive (Dox) homozygous mice on high-fat diet, weekly methotrexate injection; format: in vivo; settings: hypertension (Dox) combined with high-fat diet, methotrexate 1 mg/kg weekly, at 8 weeks of co-administration, control 43%, FIG. 12B
From the text: (§2) Homozygous mice, divided into 5 groups, are to fed with normal diet (Chow), high-fat diet (HF), high-fat diet plus boostin (HF+D), high-fat diet plus methotrexate (MTX) (HF+M), and high-fat diet plus boostin and methotrexate (HF+D+M). […] Homozygous mice are fed with normal diet (Chow) until 8 weeks old, and are fed with high fat diet HF (HF formula: 21.2% fat, 48.7% carbohydrate, 17.3% protein, and 0.25% cholesterol) for 8 weeks. The mice are divided in to groups, with each group having 15 mice. The HF group is fed with high-fat diet, and is injected with 100 μl of physiological saline weekly. The HF+M group is fed with high-fat diet, and is injected with methotrexate at a dose of 1 mg/kg once a week. The HF+D group is fed with high-fat diet and 1-2 mg/ml of doxycycline together with drinking water, and is injected with 100 μl of physiological saline weekly. The HF+D+M group is fed with high-fat diet, injected with methotrexate at a dose of 1 mg/kg once a week, and fed with doxycycline at 1-2 mg/ml together with drinking water. The blood pressure changes of the mice are periodically detected, and the data such as blood, blood lipids, blood pressure and death data etc. of the mice are collected.
As shown in FIGS. 11A to 11D, hypertension combined with a high-fat diet induce higher accumulation of triglycerides in the blood of mice. […]

homozygous mice [5] = experiment: Detection of cytokines and adhesion molecules in plasma of homozygous mice on HF diet with/without Dox, weekly MTX; format: in vivo
From the text: as §2
As shown in FIGS. 11A to 11D, hypertension combined with a high-fat diet induce higher accumulation of triglycerides in the blood of mice. The inventors, using homozygous mice, have studied the effects of methotrexate (MTX) (an anti-inflammatory drug) on cardiovascular. Male homozygous mice are fed with HF diet with/without the addition of doxycycline (Dox), and are further randomized by intraperitoneal injection of MTX or control (vector) weekly. […] Hypertension combined with a high-fat diet induced higher mortality of mice, but if injected with methotrexate weekly, the survival rate of mice is increased at 8 weeks of co-administration (74% versus 43%, FIG. 12B).

homozygous mice [6] = experiment: Blood pressure of homozygous mice on HF diet with/without doxycycline, weekly MTX injection (non-invasive tail pressure measurement); format: in vivo; settings: male homozygous mice, HF diet with/without Dox, MTX 1 mg/kg i.p. once a week; FIG. 12A
Protocol: The mice are divided into 3 groups for experiments, wild-type mice (Wt), homozygous mice (Hom) and heterozygous mice (Het), with each group having 15 mice. The mice are fed with normal diet (Chow) until 8 weeks old, and are administrated tetracycline analog doxycycline (1 to 2 mg/ml) with water. The blood pressure changes of mice are measured periodically. The method for measuring the blood pressure of mice is the method of non-invasive tail pressure measurement (iiTC Life Science, Woodland Hills, CA), wherein the mice are fixed in the sleeve and stay quiet in the sleeve for 10 minutes. Then the instrument is operated to measure the blood pressure at the tail of mice using […], three measurements are made for each operation, and the average is taken. Mice blood is collected, and body weight, heart weight, spleen weight, blood lipids and blood pressure of mice are measured.
as §1

[7] = hypertensive (Dox) homozygous mice, HF diet, MTX weekly, FIG. 12H-J
[8] = induced hypertensive MTX group compared with control group, FIGS. 12K-S

SMILES: CN(Cc1cnc2nc(N)nc(N)c2n1)c1ccc(C(=O)N[C@@H](CCC(=O)O)C(=O)O)cc1 [MTX, methotrexate]
- cardiovascular risk in patients [1]: could reduce cardiovascular risk
- IL-6, ICAM-1, E-selectin, VCAM-1 expressions [2]: can down-regulate
- atherosclerotic lesions (homozygous mice [3]): 34%
- survival rate of mice (homozygous mice [4]): 74%
- plasma concentration of MCP-5, intercellular adhesion molecule-1 and vascular cell adhesion molecules (homozygous mice [5]; homozygous mice having normal blood pressure, HF diet, MTX weekly, FIG. 12H-J): would not produce any effect
- plasma concentration of intercellular adhesion molecule-1 (homozygous mice [5]; [7]): would significantly reduce
- plasma concentration of monocyte chemoattractant protein (MCP)-5 (homozygous mice [5]; [7]): would significantly reduce
- E-selectin level in plasma (homozygous mice [5]; [8]): decreased level
- IL-1β level in plasma (homozygous mice [5]; [8]): decreased level
- IL-6 level in plasma (homozygous mice [5]; [8]): decreased level
- IL-17 level in plasma (homozygous mice [5]; [8]): decreased level
- MCP-1 level in plasma (homozygous mice [5]; [8]): decreased level
- P-selectin level in plasma (homozygous mice [5]; [8]): decreased level
- granulocyte colony-stimulating factor level in plasma (homozygous mice [5]; [8]): decreased level
- interferon-γ level in plasma (homozygous mice [5]; [8]): decreased level
- tumor necrosis factor-α level in plasma (homozygous mice [5]; [8]): decreased level
- blood pressure of the mice (homozygous mice [6]): would not alter
